# Source: PMC8512054 (Molecules, 2021)
# Where two headings read alike, the source gives them in different places.
# Legend:
# MAO-B [1] = molecular target: T1, MAO-B (Homo sapiens, UniProt P27338); design: purchased Sigma-Aldrich; method as in PMID 32246471; settings: competitive inhibitor; read-out: Ki for MAO-B (earlier study); cited from earlier work
# T1 sequence (P27338 1-520): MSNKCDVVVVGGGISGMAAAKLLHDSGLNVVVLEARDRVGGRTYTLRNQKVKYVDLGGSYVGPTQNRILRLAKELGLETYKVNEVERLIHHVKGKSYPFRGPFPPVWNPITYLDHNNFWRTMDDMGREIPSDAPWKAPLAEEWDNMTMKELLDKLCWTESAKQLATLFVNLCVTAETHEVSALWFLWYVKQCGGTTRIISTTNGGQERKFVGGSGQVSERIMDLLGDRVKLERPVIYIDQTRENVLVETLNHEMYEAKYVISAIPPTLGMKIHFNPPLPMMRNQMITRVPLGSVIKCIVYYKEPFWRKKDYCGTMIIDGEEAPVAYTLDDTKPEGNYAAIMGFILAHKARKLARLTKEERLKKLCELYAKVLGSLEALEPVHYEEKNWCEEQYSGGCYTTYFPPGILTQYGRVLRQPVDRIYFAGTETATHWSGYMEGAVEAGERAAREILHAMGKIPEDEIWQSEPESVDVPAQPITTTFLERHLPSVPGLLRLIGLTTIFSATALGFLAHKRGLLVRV
# [2] = design: method as in PMID 29532412; settings: PAMPA-BBB; cited from earlier work
# [3] = BBB permeation by PAMPA method; assay type: in vitro ADME; settings: for Prediction (BBB permeation): class from experimental Pe; for Effective permeability (Pe): read-out: Experimental Pe
# From the text: The CNS bioavailability of the molecules was further ascertained by the PAMPA method.
# MAO-B [4] = molecular target: T1, MAO-B; assay: MAO-B inhibitory assay (recombinant MAO-B, benzylamine substrate); settings: for Selectivity index (SI) for MAO-B as compared with MAO-A: from the IC50 values of MAO-A and MAO-B; for remaining activity at 10 µM: read-out: % Residual Activity (at 10 µM) MAO-B
# Protocol: (§1) MAO inhibitory assay was assessed in accordance with the previously standardized methods of assessing recombinant MAO-A and MAO-B by using the substrates (0.06 mM kynuramine and 0.3 mM benzylamine, respectively) [38, 39, 40]. […] The enzymes and chemicals were purchased from Sigma-Aldrich (St. Louis, MO, USA).
# (§2) Initially, the inhibitory activities of the synthesized compounds were identified at a concentration of 10 μM against MAO-A, MAO-B, and BACE1. […] The obtained IC50 values thus compared were used to deduce the SI values.
# MAO-B [5] = molecular target: T1, MAO-B; assay: MAO-B enzyme-inhibition kinetics (Lineweaver–Burk and secondary plots); assay type: biochemical; design: purchased Sigma-Aldrich; settings: for Mode of MAO-B inhibition: Lineweaver–Burk plots; for Ki: from secondary plot of Lineweaver–Burk slopes
# From the text: The obtained results are represented in Figure 1.
# Figure 1 Lineweaver–Burk plots for MAO-B inhibition by NEA1 and NEA3 (A,C), and their respective secondary plots (B,D) of the slopes vs. inhibitor concentrations.
# BACE1 = BACE1 (Homo sapiens, UniProt P56817); assay: BACE1 activity assay kit (β-secretase, CS0010), fluorescence; settings: for remaining activity at 10 µM: read-out: % Residual Activity (at 10 µM) BACE1
# BACE1, sequence (P56817 46-501): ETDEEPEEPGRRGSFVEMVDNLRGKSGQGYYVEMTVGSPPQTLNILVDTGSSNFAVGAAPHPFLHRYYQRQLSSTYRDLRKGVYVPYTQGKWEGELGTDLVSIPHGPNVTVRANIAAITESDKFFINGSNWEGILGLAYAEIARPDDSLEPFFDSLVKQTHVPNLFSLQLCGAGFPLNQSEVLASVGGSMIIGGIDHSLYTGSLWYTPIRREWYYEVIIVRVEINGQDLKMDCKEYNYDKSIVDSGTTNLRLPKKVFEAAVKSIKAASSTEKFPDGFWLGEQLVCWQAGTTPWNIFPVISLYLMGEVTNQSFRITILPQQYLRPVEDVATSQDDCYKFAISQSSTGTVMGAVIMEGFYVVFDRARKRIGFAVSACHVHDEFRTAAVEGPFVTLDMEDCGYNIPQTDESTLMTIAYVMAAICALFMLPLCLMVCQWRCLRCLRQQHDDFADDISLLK
# Protocol: as §1, §2
# recombinant MAO-A = molecular target: T2, recombinant MAO-A (Homo sapiens, UniProt P21397); assay: MAO-A inhibitory assay (recombinant MAO-A, kynuramine substrate); settings: for remaining activity at 10 µM: read-out: % Residual Activity (at 10 µM) MAO-A
# T2 sequence (P21397 1-527): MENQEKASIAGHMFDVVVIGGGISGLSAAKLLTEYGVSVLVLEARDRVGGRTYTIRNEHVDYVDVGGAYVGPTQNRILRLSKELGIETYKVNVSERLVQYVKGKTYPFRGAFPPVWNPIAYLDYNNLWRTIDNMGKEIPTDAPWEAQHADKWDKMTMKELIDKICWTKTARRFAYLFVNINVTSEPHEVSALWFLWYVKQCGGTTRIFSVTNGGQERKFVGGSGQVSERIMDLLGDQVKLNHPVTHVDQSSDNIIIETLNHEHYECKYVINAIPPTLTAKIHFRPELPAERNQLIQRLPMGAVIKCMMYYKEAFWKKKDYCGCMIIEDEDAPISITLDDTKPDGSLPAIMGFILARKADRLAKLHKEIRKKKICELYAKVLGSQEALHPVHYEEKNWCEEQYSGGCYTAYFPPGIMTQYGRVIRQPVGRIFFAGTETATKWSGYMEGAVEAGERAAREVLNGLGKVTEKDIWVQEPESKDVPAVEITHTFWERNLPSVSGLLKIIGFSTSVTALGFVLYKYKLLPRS
# Protocol: as §1, §2
# MAO-B [6] = molecular target: T1, MAO-B; assay: MAO-B inhibitor-reversibility analysis by dialysis; assay type: biochemical; design: purchased Sigma-Aldrich; settings: for Reversibility of MAO-B inhibition: dialysis method; for Relative MAO-B activity, dialyzed (AD) / Relative MAO-B activity, undialyzed (AU): ~2 × IC50 (NEA1 0.032, NEA3 0.020, lazabemide 0.22, pargyline 0.28 μM); for Relative MAO-B activity, dialyzed (AD): dialysis 6 h; for Relative MAO-B activity, undialyzed (AU): preincubated 30 min
# Protocol: The reversibility of MAO-B inhibition by NEA1 and NEA3 was evaluated using a standardized dialysis method. […] The activities in dialyzed (AD) and undialyzed (AU) samples were compared and reversibility patterns were determined.
# Dialysis was performed for 6 h with a buffer change after 3 h with duplicate experiments.
Effective permeability (Pe) [3],IC50 (MAO-B [4]),Selectivity index (SI) for MAO-B as compared with MAO-A (MAO-B [4]),remaining activity at 10 µM (MAO-B [4]),Mode of MAO-B inhibition (MAO-B [5]),Ki (MAO-B [5]),IC50 (BACE1),remaining activity at 10 µM (BACE1),IC50 (recombinant MAO-A),remaining activity at 10 µM (recombinant MAO-A),Reversibility of MAO-B inhibition (MAO-B [6]),"Relative MAO-B activity, dialyzed (AD) (MAO-B [6])","Relative MAO-B activity, undialyzed (AU) (MAO-B [6])",melting point,Structure (SMILES),Ki (MAO-B [1]),Bibliography Pe [2],Prediction (BBB permeation) [3],Experimental Pe [3]
14.4 ± 0.35 ×10⁻⁶ cm/s,16 ± 1 nM,>2500.0,3.88 ± 0.6%,competitive,13 ± 5 nM,8210 ± 30 nM,34.9 ± 0.5%,> 40000 nM,91.9 ± 5.9%,reversible,79.5%,29.2%,,"O=C(C=Cc1ccc([N+](=O)[O-])cc1)Nc1ccccc1 [NEA1, 3-(4-Nitrophenyl)-N-phenylacrylamide]",,,CNS+ (CNS+ (high BBB permeation predicted: Pe (10^−6 cm/s) > 4.00)),
13.5 ± 0.26 ×10⁻⁶ cm/s,5280 ± 90 nM,>7.58,35.8 ± 6.2%,,,,88.1 ± 0.3%,> 40000 nM,95 ± 0.5%,,,,224 to 226 °C,"O=C(C=Cc1ccc([N+](=O)[O-])cc1)Nc1ccc(Cl)cc1 [NEA2, N-(4-Chlorophenyl)-3-(4-nitrophenyl)acrylamide]",,,CNS+ (CNS+ (high BBB permeation predicted: Pe (10^−6 cm/s) > 4.00)),
16.4 ± 0.17 ×10⁻⁶ cm/s,9.2 ± 0.3 nM,1652.2,3.04 ± 0.5%,competitive,4.9 ± 0.2 nM,8020 ± 130 nM,34.4 ± 0.2%,15200 ± 600 nM,61.9 ± 0.4%,reversible,79.5%,32.8%,208 to 210 °C,"O=C(C=Cc1ccc([N+](=O)[O-])cc1)Nc1ccc(F)cc1 [NEA3, N-(4-Fluorophenyl)-3-(4-nitrophenyl)acrylamide]",,,CNS+ (CNS+ (high BBB permeation predicted: Pe (10^−6 cm/s) > 4.00)),
15.5 ± 0.62 ×10⁻⁶ cm/s,74 ± 20 nM,>540.5,9.52 ± 3.5%,,,,61.2 ± 3%,> 40000 nM,85.6 ± 1.7%,,,,166 to 168 °C,"O=C(C=Cc1ccc([N+](=O)[O-])cc1)NC1CCCCC1 [NEA4, N-Cyclohexyl-3-(4-nitrophenyl)acrylamide]",,,CNS+ (CNS+ (high BBB permeation predicted: Pe (10^−6 cm/s) > 4.00)),
15.5 ± 0.44 ×10⁻⁶ cm/s,38 ± 3 nM,>1052.6,8.67 ± 2.3%,,,17700 ± 1700 nM,44 ± 0.2%,> 40000 nM,83.5 ± 1.3%,,,,200 to 203 °C,"Cc1ccccc1NC(=O)/C=C/c1ccc([N+](=O)[O-])cc1 [NEA5, 3-(4-Nitrophenyl)-N-(O-tolyl)acrylamide]",,,CNS+ (CNS+ (high BBB permeation predicted: Pe (10^−6 cm/s) > 4.00)),

# More lines, now with the values behind:
Structure (SMILES),Effective permeability (Pe) [3],IC50 (MAO-B [4]),Selectivity index (SI) for MAO-B as compared with MAO-A (MAO-B [4]),remaining activity at 10 µM (MAO-B [4]),Mode of MAO-B inhibition (MAO-B [5]),Ki (MAO-B [5]),IC50 (BACE1),remaining activity at 10 µM (BACE1),IC50 (recombinant MAO-A),remaining activity at 10 µM (recombinant MAO-A),Reversibility of MAO-B inhibition (MAO-B [6]),"Relative MAO-B activity, dialyzed (AD) (MAO-B [6])","Relative MAO-B activity, undialyzed (AU) (MAO-B [6])",melting point,Ki (MAO-B [1]),Bibliography Pe [2],Prediction (BBB permeation) [3],Experimental Pe [3]
"C=CC(=O)Nc1cccc([N+](=O)[O-])c1 [AD9, N-(3-nitrophenyl)prop-2 enamide]",,,,,,,,,,,,,,,39 ± 5 nM,,,
"NCCc1ccc(O)c(O)c1 [Dopamine, reference compound]",0.26 ± 0.04 ×10⁻⁶ cm/s,,,,,,,,,,,,,,,0.2 ×10⁻⁶ cm/s,CNS− (CNS− (low BBB permeation predicted: Pe (10^−6 cm/s) < 2.00)),
"CCn1cc(C(=O)O)c(=O)c2cc(F)c(N3CCNC(C)C3)c(F)c21 (stereo not drawn) [Lomefloxacin, reference compound]",1.31 ± 0.51 ×10⁻⁶ cm/s,,,,,,,,,,,,,,,,CNS− (CNS− (low BBB permeation predicted: Pe (10^−6 cm/s) < 2.00)),
"CN1C(C(=O)Nc2ccccn2)=C(O)c2ccccc2S1(=O)=O [Piroxicam, reference compound]",,,,,,,,,,,,,,,,2.5 ×10⁻⁶ cm/s,CNS± (CNS± (BBB permeation uncertain: Pe (10^−6 cm/s) from 2.00 to 4.00)),2.37 ± 0.33 ×10^−6 cm/s
